Measurements as given in ChEMBL document CHEMBL5236667, “Synthesis of pyrrolo[3,2-d]pyrimidineone derivatives as novel FXa inhibitors” (Bioorg Med Chem Lett, 2023).
Active and inactive are the calls of the source. The rule behind the calls is not given here.

How the values were obtained:
Coagulation factor X [1] = target: T1, Coagulation factor X (Homo sapiens, UniProt P00742); test: Inhibition of factor Xa (unknown origin) assessed as residual enzymatic activity at 20 nM
Coagulation factor X [2] = target: T1, Coagulation factor X; test: Potency index, ratio of rivaroxaban IC50 to test compound IC50 for inhibition of factor Xa (unknown origin)
Rattus norvegicus [3] = test: Antithrombotic activity in […]-induced venous thrombosis rat model assessed as reduction in thrombus weight at 0.5 mg/kg (reference value: 9.7 +/- 1.62 mg); assay type: functional
Rattus norvegicus [4] = test: Antithrombotic activity in FlC3-induced venous thrombosis rat model assessed as reduction in thrombus weight at 1 mg/kg (reference value: 9.7 +/- 1.62 mg); assay type: functional
Oryctolagus cuniculus [5] = species on record: Oryctolagus cuniculus; test: Anticoagulant activity in rabbit plasma assessed as T/C ratio of prothrombin time (reference value: 1); assay type: functional
Rattus norvegicus [6] = test: Antithrombotic activity in […]-induced venous thrombosis rat model assessed as reduction in thrombus weight at 2 mg/kg (reference value: 9.7 +/- 1.62 mg); assay type: functional
Oryctolagus cuniculus [7] = species on record: Oryctolagus cuniculus; test: Anticoagulant activity in rabbit plasma assessed as increase in prothrombin time at 20 to 62500 nM; assay type: functional; details: dose 20-62500 nM
Rattus norvegicus [8] = test: Antithrombotic activity in […]-induced venous thrombosis rat model assessed as thrombus inhibition rate at 2 mg/kg relative to control; assay type: functional
Rattus norvegicus [9] = test: Antithrombotic activity in […]-induced venous thrombosis rat model assessed as thrombus inhibition rate at 1 mg/kg relative to control; assay type: functional
Rattus norvegicus [10] = test: Antithrombotic activity in […]-induced venous thrombosis rat model assessed as thrombus inhibition rate at 0.5 mg/kg relative to control; assay type: functional
Coagulation factor X [11] = target: T1, Coagulation factor X; test: Inhibition of factor Xa (unknown origin)
Rattus norvegicus [12] = test: Antithrombotic activity in […]-induced venous thrombosis rat model assessed as reduction in thrombus weight at 1 mg/kg (reference value: 7.79 +/- 1.62 mg); assay type: functional

T1 sequence (P00742 41-179 limits assumed): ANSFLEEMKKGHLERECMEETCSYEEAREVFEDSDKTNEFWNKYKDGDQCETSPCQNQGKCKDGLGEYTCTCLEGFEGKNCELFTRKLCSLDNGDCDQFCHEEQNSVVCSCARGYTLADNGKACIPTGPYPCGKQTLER
T1 sequence (P00742 235-488 limits assumed): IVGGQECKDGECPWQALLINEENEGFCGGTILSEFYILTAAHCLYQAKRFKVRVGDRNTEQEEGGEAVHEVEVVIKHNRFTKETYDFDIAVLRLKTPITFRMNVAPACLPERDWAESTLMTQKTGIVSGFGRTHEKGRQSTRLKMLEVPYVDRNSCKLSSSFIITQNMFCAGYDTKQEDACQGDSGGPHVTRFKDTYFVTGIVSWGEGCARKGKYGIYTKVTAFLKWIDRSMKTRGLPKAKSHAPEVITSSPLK

Compound	Activity (Coagulation factor X [1])	Ratio IC50 (Coagulation factor X [2])	IC50 (Coagulation factor X [11])	Activity (Rattus norvegicus [3])	Activity (Rattus norvegicus [4])	T/C (Oryctolagus cuniculus [5])	Activity (Rattus norvegicus [6])	Activity (Oryctolagus cuniculus [7])	inhibition in vivo at 2 mg/kg (Rattus norvegicus [8])	inhibition in vivo at 1 mg/kg (Rattus norvegicus [9])	inhibition in vivo at 0.5 mg/kg (Rattus norvegicus [10])	Activity (Rattus norvegicus [12])
COc1ccc(-n2nc(C(N)=O)c3c2C(=O)N(c2ccc(N4CCCCC4=O)cc2)CC3)cc1 [APIXABAN]				3.33 mg						58%	66%	3.24 mg
COc1ccc(-n2cc(C#N)c3ncn(-c4ccc(N5CCC[C@H]5C(N)=O)cc4)c(=O)c32)cc1	45.8%	4	3.69 nM			1.67				53%		3.65 mg

Continued, in another order:

Activity (Coagulation factor X [1])	Ratio IC50 (Coagulation factor X [2])	IC50 (Coagulation factor X [11])	Compound	Activity (Rattus norvegicus [3])	Activity (Rattus norvegicus [4])	T/C (Oryctolagus cuniculus [5])	Activity (Rattus norvegicus [6])	Activity (Oryctolagus cuniculus [7])	inhibition in vivo at 2 mg/kg (Rattus norvegicus [8])	inhibition in vivo at 1 mg/kg (Rattus norvegicus [9])	inhibition in vivo at 0.5 mg/kg (Rattus norvegicus [10])	Activity (Rattus norvegicus [12])
46.7%	9	1.57 nM	COc1ccc(-n2cc(C(N)=O)c3ncn(-c4ccc(N5CCOCC5=O)cc4)c(=O)c32)cc1	5.36 mg	3.05 mg	1.99	2.6 mg	Active	73%	65%	45%	2.73 mg
59.8%			COc1ccc(-n2cc(C#N)c3ncn(-c4ccc(N5CCOCC5=O)cc4)c(=O)c32)cc1			1.88		Active				
45.8%			O=C(NC[C@H]1CN(c2ccc(N3CCOCC3=O)cc2)C(=O)O1)c1ccc(Cl)s1 [RIVAROXABAN]		2.41 mg	2.03				75%		
